According to patent publication US20230364057A1, “BACTERIAL DNA GYRASE INHIBITORS AND METHODS OF USE THEREOF” (THE FLORIDA INTERNATIONAL UNIVERSITY BOARD OF TRUSTEES, priority 2022, published 2023):
Converted amounts (≈) assume the structure as drawn. Like-named read-outs stand apart in the source and are kept apart here.

Key:
E. coli DNA gyrase [1] = target: T1, E. coli DNA gyrase (Escherichia coli (strain K12), UniProt P0AES4+P0AES6); assay: Agarose gel-based DNA gyrase inhibition assay; format: biochemical; details: for inhibition of E. coli DNA gyrase activities: 50 µM of compounds
Protocol: 100 ng of DNA gyrase was used to supercoil the rx pAB1 in the presence of different concentrations of a gyrase inhibitor. […] Samples were analyzed by electrophoresis in 1% w/v agarose gels followed by ethidium bromide staining and photographed under UV light.

E. coli DNA gyrase [2] = target: T1, E. coli DNA gyrase; assay: biochemical; format: biochemical
S. aureus (ATCC 14775) = assay: Minimum inhibitory concentration, broth microdilution; details: for MIC: Staphylococcus aureus
Protocol: (§1) Antibacterial minimum inhibitory concentrations (MICs) were obtained from three independent experiments using broth microdilution methods in 96-well plates according to Clinical and Laboratory Standards Institute guidelines. Cells were culture from singles colonies in MHIIB medium for 24 h at 37° C. in agitation (200 RPM). The cultures were then diluted using the same media to reach an OD600 of 0.1. Then, 50 µL of the diluted cultures were added to the plates holding 50 µL of serially diluted compounds in MHIIB. The plates were incubated at 37° C. for 20 h. The starting inoculum was fixated to 10^5 colony-forming units per ml.

MRSA = assay: as above; details: for MIC: Staphylococcus aureus, MRSA
B. subtilis (ATCC 6633) = assay: as above; details: Bacillus subtilis, ATCC6633, read-out: Minimum Inhibitory Concentration B.subtilis
Protocol: as §1

in vitro [3] = details: mouse
in vitro [4] = details: human
Mtb DNA gyrase = Mtb DNA gyrase (Mycobacterium tuberculosis (strain ATCC 25618 / H37Rv), UniProt P9WG45+P9WG47); assay: Mtb DNA gyrase inhibition assay (gel-based); format: biochemical; details: Table 5, Mtb gyrase; read-out: IC50 (µM) Mtb
Protocol: The IC50 against E. coli (A) and Mtb (C) gyrase were determined using the gel-based gyrase inhibition assays. The gyrase mediated DNA cleavage assays (B and D) were performed using pBR322. (A) 229 inhibits E. coli gyrase. Lane 1, rx pAB1. […] Lane 1, rx pAB1. […] 100 µM of CPDs were used. Symbols rx, nk, In, and sc represent relaxed, nicked, linear, and supercoiled DNA, respectively.
Agarose gel-based DNA gyrase inhibition assays were performed in 30 µL of 1 ×gyrase buffer (35 mM Tris-HCl, 24 mM KCl, 4 mM MgCl2, 2 mM DTT, 1.75 mM ATP, 0.1 mg/mL BSA, 6.5% glycerol, pH7.5) containing 400 ng of rx pAB1 at 37° C. 100 ng of DNA gyrase was used to supercoil the rx pAB1 in the presence of different concentrations of a gyrase inhibitor. After 15 minutes of incubation with the inhibitor at 37° C., all reactions were stopped with 1 µL of stop solution (3% SDS and 250 mM EDTA). Samples were analyzed by electrophoresis in 1% w/v agarose gels followed by ethidium bromide staining and photographed under UV light.

Mtb = Mtb whole cell assay (% inhibition, MIC); format: cell-based, Mycobacterium tuberculosis; details: Mycobacterium tuberculosis; Table 5 (same values in Table 6 at 20 µM)
E. coli (ATCC 25922) = assay: Minimum inhibitory concentration, broth microdilution; details: Escherichia coli, ATCC25922, read-out: Minimum Inhibitory Concentration E. coli, Tables 3a-3c
[5] = target: E. coli DNA topoisomerase IV (Escherichia coli (strain K12), UniProt P0AFI2+P20083); assay: E. coli DNA topoisomerase IV relaxation assay (gel-based); format: biochemical; details: IC50 Topoisomerase IV Gel-based, Table 8
Sequence of E. coli DNA topoisomerase IV (P0AFI2 whole entry, looked up): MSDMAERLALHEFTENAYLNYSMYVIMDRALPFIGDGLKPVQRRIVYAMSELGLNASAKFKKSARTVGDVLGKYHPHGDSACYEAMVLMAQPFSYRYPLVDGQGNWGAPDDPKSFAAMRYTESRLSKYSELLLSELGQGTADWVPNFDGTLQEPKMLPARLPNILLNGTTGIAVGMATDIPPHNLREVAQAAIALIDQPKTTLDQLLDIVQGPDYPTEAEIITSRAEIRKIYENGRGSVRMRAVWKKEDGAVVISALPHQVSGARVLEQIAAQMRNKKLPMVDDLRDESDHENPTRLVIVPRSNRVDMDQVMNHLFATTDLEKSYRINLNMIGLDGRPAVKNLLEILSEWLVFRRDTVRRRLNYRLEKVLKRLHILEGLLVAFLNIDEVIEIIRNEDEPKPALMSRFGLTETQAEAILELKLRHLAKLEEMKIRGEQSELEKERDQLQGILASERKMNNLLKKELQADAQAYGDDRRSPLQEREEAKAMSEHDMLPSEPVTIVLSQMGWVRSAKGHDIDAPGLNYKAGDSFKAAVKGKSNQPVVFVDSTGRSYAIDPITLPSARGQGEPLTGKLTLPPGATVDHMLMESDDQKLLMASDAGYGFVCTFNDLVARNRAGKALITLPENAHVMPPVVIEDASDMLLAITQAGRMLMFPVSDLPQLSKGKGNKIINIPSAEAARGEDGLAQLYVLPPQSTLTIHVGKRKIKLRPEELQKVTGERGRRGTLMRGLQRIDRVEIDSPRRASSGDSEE
Sequence of E. coli DNA topoisomerase IV (P20083 whole entry, looked up): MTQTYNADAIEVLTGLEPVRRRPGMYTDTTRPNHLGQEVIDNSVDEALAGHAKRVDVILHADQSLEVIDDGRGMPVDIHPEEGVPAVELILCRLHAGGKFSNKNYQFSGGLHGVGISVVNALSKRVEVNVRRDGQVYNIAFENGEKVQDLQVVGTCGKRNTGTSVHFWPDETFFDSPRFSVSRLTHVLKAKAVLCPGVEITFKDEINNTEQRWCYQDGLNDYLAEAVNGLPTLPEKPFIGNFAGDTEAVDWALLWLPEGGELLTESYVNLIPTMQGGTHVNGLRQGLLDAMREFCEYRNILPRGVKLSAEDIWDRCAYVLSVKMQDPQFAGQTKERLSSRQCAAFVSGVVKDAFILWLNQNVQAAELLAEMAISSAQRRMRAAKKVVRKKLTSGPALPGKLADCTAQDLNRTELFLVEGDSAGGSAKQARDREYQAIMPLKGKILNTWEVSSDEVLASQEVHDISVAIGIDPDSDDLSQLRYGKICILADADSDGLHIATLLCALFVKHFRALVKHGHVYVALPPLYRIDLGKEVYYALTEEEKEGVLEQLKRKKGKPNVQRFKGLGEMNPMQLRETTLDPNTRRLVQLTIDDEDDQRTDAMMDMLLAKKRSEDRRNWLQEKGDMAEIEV
Protocol: Relaxation assays by E. coli DNA topoisomerase IV and the ATPase assays were performed. […] Lane 1 is supercoiled plasmid pAB1. […] The supercoiled, fluorescently-labeled plasmid pAB1_FL905 was used.

[6] = IC50 ([…]-50 µM), bin of Table 2
[7] = ATCC14775, read-out: Minimum Inhibitory Concentration S.aureus
[8] = read-out: Minimum Inhibitory Concentration S.aureus MRSA
[9] = IC50 (µM) EC, Table 5, E. coli gyrase
[10] = ATCC14775, read-out: MIC (µM) SA
[11] = IC50 (15-[…] µM), bin of Table 2

Compound	inhibition of E. coli DNA gyrase activities (E. coli DNA gyrase [1])	MIC (S. aureus (ATCC 14775); [7])	MIC (MRSA; [8])	MIC (B. subtilis (ATCC 6633))	IC50 (E. coli DNA gyrase [2]; [9])	IC50 (Mtb DNA gyrase)	inhibition at 20 µM (Mtb)	MIC (S. aureus (ATCC 14775); [10])	MIC (MRSA; read-out: MIC (µM) MRSA)	also measured
CCc1ccc(S(=O)(=O)/N=C2/C=C(Nc3ccc(C(=O)O)cc3)C(=O)c3ccccc32)cc1 [Compound 104]	completely inhibited	100 µM (≈ 46.1 µg/mL)	100 µM (≈ 46.1 µg/mL)	50 µM (≈ 23 µg/mL)						IC50 (E. coli DNA gyrase [2]; [6]): 25 to 50 µM
COc1cccc(-n2c(C)cc(/C=C3/C(=N)N4C(=NC3=O)SN=C4[S+](C)[O-])c2C)c1 (centres unmarked) [Compound 105]	completely inhibited	50 µM (≈ 22.1 µg/mL)	100 µM (≈ 44.2 µg/mL)	25 µM (≈ 11 µg/mL)						IC50 (E. coli DNA gyrase [2]; [6]): 25 to 50 µM
O=C(O)c1ccc(NN=CC=Cc2ccc([N+](=O)[O-])o2)cc1 [Compound 110]	potently inhibited									IC50 (E. coli DNA gyrase [2]; IC50 (50-200 µM), bin of Table 2): 50 to 200 µM; IC50 (in vitro [3]): > 200 µM; IC50 (in vitro [4]): > 200 µM
Cc1c(CC(=O)O)c(=O)oc2c(C)c3occ(-c4ccc(Br)cc4)c3cc12 [Compound 117]	completely inhibited	1.56 µM (≈ 0.667 µg/mL)	1.56 µM (≈ 0.667 µg/mL)		15.7 µM	50 µM	24.7%	1.6 µM (≈ 0.684 µg/mL)	1.6 µM (≈ 0.684 µg/mL)	
Cc1c(C)c2cc3c(-c4ccc(Br)cc4)coc3c(C)c2oc1=O [Compound 118]					> 200 µM	> 200 µM	21.8%	> 200 µM	> 200 µM	
Cc1c(CCC(=O)O)c(=O)oc2c(C)c3occ(-c4ccc(Cl)cc4)c3cc12 [Compound 120]	completely inhibited	1.56 µM (≈ 0.619 µg/mL)	1.56 µM (≈ 0.619 µg/mL)		7.9 µM	33 µM	18.7%	1.6 µM (≈ 0.635 µg/mL)	1.6 µM (≈ 0.635 µg/mL)	
Cc1c(CCC(=O)O)c(=O)oc2c(C)c3occ(-c4ccccc4)c3cc12 [Compound 121]		3.12 µM (≈ 1.13 µg/mL)	3.12 µM (≈ 1.13 µg/mL)	50 µM (≈ 18.1 µg/mL)	28 µM	58 µM	36.7%	3.1 µM (≈ 1.12 µg/mL)	3.1 µM (≈ 1.12 µg/mL)	
Cc1coc2cc3oc(=O)c(CCC(=O)O)c(C)c3cc12 [Compound 122]	potently inhibited				> 200 µM	> 200 µM	15.7%	> 200 µM	> 200 µM	
Cc1c(CCC(=O)O)c(=O)oc2c(C)c3occ(-c4ccc(F)cc4)c3cc12 [Compound 123]	completely inhibited	1.56 µM (≈ 0.593 µg/mL)	1.56 µM (≈ 0.593 µg/mL)	6.25 µM (≈ 2.38 µg/mL)	28.1 µM	34 µM	31.8%	1.6 µM (≈ 0.609 µg/mL)	1.6 µM (≈ 0.609 µg/mL)	
Cc1c(CCC(=O)O)c(=O)oc2c(C)c3occ(-c4ccc(N5CCCC5)cc4)c3cc12 [Compound 125]	completely inhibited				4.9 µM	55 µM	10.2%	> 200 µM		inhibition of E. coli DNA gyrase activities (E. coli DNA gyrase [2]): potently inhibited; growth of S. aureus (S. aureus (ATCC 14775)): did not inhibit the growth; growth of MRSA (MRSA): did not inhibit the growth
CCn1c(N)[n+](CC(=O)Nc2ccc(SC(F)F)cc2)c2ccccc21.[Cl-] [Compound 135]	completely inhibited	50 µM	50 µM	50 µM						IC50 (E. coli DNA gyrase [2]; [11]): 15 to 25 µM; MIC (E. coli (ATCC 25922)): 200 µM
Cc1ccc2nc3n(c2c1C)C/C(=C/c1ccc(-c2ccccc2C(=O)O)o1)[S+]3[O-] (centres unmarked) [Compound 155]	completely inhibited	100 µM (≈ 41.8 µg/mL)	50 µM (≈ 20.9 µg/mL)	50 µM (≈ 20.9 µg/mL)						IC50 (E. coli DNA gyrase [2]; [11]): 15 to 25 µM
COc1cc(/C=N/N=c2\[nH]c3ccccc3s2)cc([N+](=O)[O-])c1O [Compound 178]	completely inhibited									IC50 (in vitro [3]): > 200 µM; IC50 (in vitro [4]): > 200 µM
O=C(O)c1cc(O)c(O)c(O)c1 [gallic acid]										IC50 (E. coli DNA gyrase [1]; Table 8, read-out: IC50 Gyrase Gel-based): > 500 µM; inhibition of E. coli DNA gyrase activities (E. coli DNA gyrase [2]): does not inhibit E. coli DNA gyrase up to 500 µM; IC50 [5]: > 500 µM
